Reference: patent publication US12077503B2, “Substituted cyclic amides and their use as herbicides” (FMC CORPORATION, priority 2015, dated 2024)
Like-named read-outs stand apart in the source and are kept apart here.

Legend:
Format in all cases: in vivo
[1] = tested on: ragweed (common ragweed, Ambrosia elatior); experiment: Test A postemergence; details: Ambrosia artemisiifolia, post-emergence, 240 h, 125 g ai/ha, postemergence
Method in brief: (§1)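 Preemergence soil spray on seeded pots or post-emergence spray on 1–2 leaf plants, in loam–sand blend. Greenhouse ~10 d. Visual rating 0–100 against untreated plants.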

[2] = tested on: giant foxtail (Setaria faberii); experiment: Test A postemergence; details: Setaria faberi, post-emergence, 240 h, postemergence; for pest or weed control at 125 g/ha: 125 g ai/ha; for pest or weed control at 500 g/ha: 500 g ai/ha, visual injury, 0 to 100 scale (0 no effect, 100 complete control), read-out: Plant response rating, Foxtail, Giant
Method in brief: as §1

[3] = tested on: ryegrass, Italian (Italian ryegrass, Lolium multiflorum); experiment: Test A postemergence; details: Lolium multiflorum, post-emergence, 240 h, 125 g ai/ha, postemergence
Method in brief: as §1

[4] = tested on: barnyardgrass (Echinochloa crus-galli); experiment: Test A postemergence; details: Echinochloa crus-galli, post-emergence, 240 h, postemergence; for pest or weed control at 125 g/ha: 125 g ai/ha; for pest or weed control at 500 g/ha: 500 g ai/ha, visual injury, 0 to 100 scale (0 no effect, 100 complete control), read-out: Plant response rating, Barnyardgrass
Method in brief: as §1

[5] = tested on: pigweed (Amaranthus retroflexus); experiment: Test A postemergence; details: Amaranthus retroflexus, post-emergence, 240 h, 125 g ai/ha, postemergence
Method in brief: as §1

[6] = tested on: wheat (Triticum aestivum); experiment: Test A postemergence; details: Triticum aestivum, post-emergence, 240 h, 125 g ai/ha, postemergence
Method in brief: as §1

corn (Zea mays) = experiment: Test A postemergence; details: Zea mays, post-emergence, 240 h, postemergence; for plant injury at 125 g/ha: 125 g ai/ha; for Corn plant response rating (crop injury, 0 = no effect, 100 = complete kill) at 500 g/ha: 500 g ai/ha, visual injury, 0 to 100 scale (0 no effect, 100 complete control)
Method in brief: as §1

[7] = tested on: blackgrass (Alopecurus myosuroides); experiment: Test A postemergence; details: Alopecurus myosuroides, post-emergence, 240 h, postemergence; for pest or weed control at 125 g/ha: 125 g ai/ha; for pest or weed control at 500 g/ha: 500 g ai/ha, visual injury, 0 to 100 scale (0 no effect, 100 complete control), read-out: Plant response rating, Blackgrass
Method in brief: as §1

[8] = tested on: Galium (catchweed bedstraw, Galium aparine); experiment: Test A postemergence; details: Galium, post-emergence, 240 h, postemergence; for pest or weed control at 125 g/ha: 125 g ai/ha; for pest or weed control at 500 g/ha: 500 g ai/ha, visual injury, 0 to 100 scale (0 no effect, 100 complete control), read-out: Plant response rating, Galium
Method in brief: as §1

Kochia (Kochia scoparia) = experiment: Test A postemergence; details: Bassia scoparia, post-emergence, 240 h, postemergence; for pest or weed control at 125 g/ha: 125 g ai/ha; for pest or weed control at 500 g/ha: 500 g ai/ha, visual injury, 0 to 100 scale (0 no effect, 100 complete control), read-out: Plant response rating, Kochia
Method in brief: as §1

[9] = tested on: pigweed (Amaranthus retroflexus); experiment: Test A preemergence; details: Amaranthus retroflexus, pre-emergence, 240 h; for pest or weed control at 125 g/ha: 125 g ai/ha; for pest or weed control at 500 g/ha: 500 g ai/ha
[10] = tested on: barnyardgrass (Echinochloa crus-galli); experiment: Test B flooded paddy test; details: Echinochloa crus-galli, 250 g ai/ha, Flood, read-out: Barnyardgrass plant response rating
Method in brief: (§2)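 Rating scale 0–100 (visual, vs untreated controls) after a 13–15 d greenhouse period; application to the flood layer, 3 cm above soil and maintained; plants at 2-leaf stage when treated.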

rice (Oryra sativa) = experiment: Test B flooded paddy test; details: Oryza sativa, 250 g ai/ha, Flood, read-out: Rice plant response rating
Method in brief: as §2

[11] = tested on: sedge, umbrella (small-flower umbrella sedge, Cyperus difformis); experiment: Test B flooded paddy test; details: Cyperus difformis, 250 g ai/ha, Flood, read-out: Sedge, Umbrella plant response rating
Method in brief: as §2

[12] = tested on: ducksalad (Heteranthera limosa); experiment: Test B flooded paddy test; details: Heteranthera limosa, 250 g ai/ha, Flood, read-out: Ducksalad plant response rating
Method in brief: as §2

[13] = visual injury on 0 to 100 scale (0 no effect, 100 complete control), approx. 10 d, read-out: Ragweed plant response rating
[14] = visual injury on 0 to 100 scale (0 no effect, 100 complete control), approx. 10 d, read-out: Foxtail, Giant plant response rating
[15] = visual injury on 0 to 100 scale (0 no effect, 100 complete control), approx. 10 d, read-out: Ryegrass, Italian plant response rating
[16] = visual injury on 0 to 100 scale (0 no effect, 100 complete control), approx. 10 d, read-out: Barnyardgrass plant response rating
[17] = visual injury on 0 to 100 scale (0 no effect, 100 complete control), approx. 10 d, read-out: Pigweed plant response rating
[18] = visual injury on 0 to 100 scale (0 no effect, 100 complete control), approx. 10 d, read-out: Wheat plant response rating
[19] = visual injury on 0 to 100 scale (0 no effect, 100 complete control), approx. 10 d, read-out: Corn plant response rating
[20] = visual injury on 0 to 100 scale (0 no effect, 100 complete control), approx. 10 d, read-out: Blackgrass plant response rating
[21] = visual injury on 0 to 100 scale (0 no effect, 100 complete control), approx. 10 d, read-out: Galium plant response rating
[22] = visual injury on 0 to 100 scale (0 no effect, 100 complete control), approx. 10 d, read-out: Kochia plant response rating
[23] = Preemergence, visual injury rating after approximately 10 d, read-out: Pigweed plant response rating (0 to 100 scale, 0 is no effect, 100 is complete control)
[24] = preemergence, visual injury rating about 10 d after treatment, 0 to 100 scale (0 no effect, 100 complete control), read-out: Pigweed plant response rating
[25] = 0 to 100 scale where 0 is no effect and 100 is complete control
[26] = scale of 0 to 100 where 0 is no effect and 100 is complete control

Row | Structure (SMILES) | pest or weed control at 125 g/ha [1, 13] | pest or weed control at 125 g/ha [2, 14] | pest or weed control at 500 g/ha ([2]; approx. 10 d) | pest or weed control at 125 g/ha [3, 15] | pest or weed control at 125 g/ha [4, 16] | pest or weed control at 500 g/ha ([4]; approx. 10 d) | pest or weed control at 125 g/ha [5, 17] | plant injury at 125 g/ha [6, 18] | plant injury at 125 g/ha (corn (Zea mays); [19]) | Corn plant response rating (crop injury, 0 = no effect, 100 = complete kill) at 500 g/ha (corn (Zea mays); approx. 10 d) | pest or weed control at 125 g/ha [7, 20] | pest or weed control at 500 g/ha ([7]; approx. 10 d) | pest or weed control at 125 g/ha [8, 21] | pest or weed control at 500 g/ha ([8]; approx. 10 d) | pest or weed control at 125 g/ha (Kochia (Kochia scoparia); [22]) | pest or weed control at 500 g/ha (Kochia (Kochia scoparia); approx. 10 d) | pest or weed control at 125 g/ha [9, 23] | pest or weed control at 500 g/ha [9, 24] | pest or weed control at 250 g/ha [10, 25] | pest or weed control at 250 g/ha (rice (Oryra sativa); [25]) | also measured
1 | O=C(Nc1cccc(F)c1F)[C@H]1C(=S)NC[C@@H]1c1ccc(C(F)(F)F)cc1 (racemic) [Compound 1048] | 0% | 60% | 80% | 30% | 50% | 80% | 30% | 20% | 20% | 40% | 20% | 30% | 0% | 60% | 30% | 60% | 80% | 90% | 30% | 0% | pest or weed control at 250 g/ha [11, 25]: 0%; pest or weed control at 250 g/ha [12, 25]: 50%
2 | O=C1NC[C@H](c2ccc3c(c2)CCC3)[C@H]1C(=O)Nc1ccccc1F [Compound 1045] | 30% | 60% | 90% | 50% | 90% | 90% | 0% | 20% | 20% | 40% | 40% | 60% | 40% | 50% | 0% | 0% | 0% | 0% | 75% | 0% | pest or weed control at 250 g/ha [11, 25]: 0%; pest or weed control at 250 g/ha [12, 25]: 100%
3 | Cc1c(F)ccc([C@H]2CN(C)C(=O)[C@@H]2C(=O)Nc2ccc(F)cc2F)c1F [Compound 835] |  |  |  |  |  |  |  |  |  |  |  |  |  |  |  |  |  |  |  |  | pest or weed control at 125 g/ha ([1]; visual injury rating after approximately 10 d, read-out: Ragweed plant response rating (0 to 100 scale, 0 no effect, 100 complete control)): 0%; pest or weed control at 125 g/ha ([2]; visual injury rating after approximately 10 d, read-out: Foxtail, Giant plant response rating (0 to 100 scale, 0 no effect, 100 complete control)): 90%; pest or weed control at 125 g/ha ([3]; visual injury rating after approximately 10 d, read-out: Ryegrass, Italian plant response rating (0 to 100 scale, 0 no effect, 100 complete control)): 50%; pest or weed control at 125 g/ha ([4]; visual injury rating after approximately 10 d, read-out: Barnyardgrass plant response rating (0 to 100 scale, 0 no effect, 100 complete control)): 90%; pest or weed control at 125 g/ha ([5]; visual injury rating after approximately 10 d, read-out: Pigweed plant response rating (0 to 100 scale, 0 no effect, 100 complete control)): 20%; plant injury at 125 g/ha ([6]; visual injury rating after approximately 10 d, read-out: Wheat plant response rating (0 to 100 scale, 0 no effect, 100 complete control)): 0%; plant injury at 125 g/ha (corn (Zea mays); visual injury rating after approximately 10 d, read-out: Corn plant response rating (0 to 100 scale, 0 no effect, 100 complete control)): 30%; pest or weed control at 125 g/ha ([7]; visual injury rating after approximately 10 d, read-out: Blackgrass plant response rating (0 to 100 scale, 0 no effect, 100 complete control)): 40%; pest or weed control at 125 g/ha ([8]; visual injury rating after approximately 10 d, read-out: Galium plant response rating (0 to 100 scale, 0 no effect, 100 complete control)): 30%; pest or weed control at 125 g/ha (Kochia (Kochia scoparia); visual injury rating after approximately 10 d, read-out: Kochia plant response rating (0 to 100 scale, 0 no effect, 100 complete control)): 0%; pest or weed control at 125 g/ha ([9]; preemergence, 0 to 100 scale where 0 is no effect and 100 is complete control, read-out: Pigweed plant response rating): 20%; pest or weed control at 500 g/ha ([9]; Preemergence, visual injury vs untreated controls after approximately 10 d, read-out: Pigweed plant response rating (0 to 100 scale where 0 is no effect and 100 is complete control)): 40%; pest or weed control at 250 g/ha [10, 26]: 50%; pest or weed control at 250 g/ha (rice (Oryra sativa); [26]): 20%; pest or weed control at 250 g/ha [11, 26]: 0%; pest or weed control at 250 g/ha [12, 26]: 70%
